SMILES strings stand for the structures.

Here are results for 1 compound from article PMC9393165 (Scientific Reports, 2022).

The conditions of data set [1]: diltiazem 30 mg three times daily; day 7 after KT; CYP3A5 expressers; cited from earlier work.
The nature of data set [2]: Early-morning blood pressure and pulse rate in kidney transplant recipients. In kind it is in vivo, human. The following applies: for Diastolic blood pressure / Pulse rate: diltiazem 30 mg every 12 h. Here is the method:
All patients received a fixed dose of omeprazole 40 mg/day.
For calculation of AUC/D and C0/D, values of AUC and C0 were dose-adjusted by dividing the observed values by the dose recorded on the day of blood collection. Early-morning blood pressures were measured on the same day of blood collection for pharmacokinetic analysis by a ward nurse as part of a routine examination, during rest in a seated position with a calibrated and well-maintained automatic sphygmomanometer. Delayed graft function (DGF) was defined as failure of the kidney graft to function immediately, with the need for dialysis in the first 7 days post-KT. Episode of biopsy-proven acute rejection (BPAR) during 3 months post-KT was diagnosed based on histologic findings in indication kidney graft biopsy according to Banff 2015 criteria.

The mark [3] stands for this setting: day 3 post-transplantation, CYP3A5 expressers (n = 11), mean ± SD.
Setting [4] is: day 3 post-transplantation, CYP3A5 non-expressers (n = 9), mean ± SD.
Setting [5] is: day 7 post-transplantation, CYP3A5 expressers (n = 11), mean ± SD.
Where [6] appears, read: day 7 post-transplantation, CYP3A5 non-expressers (n = 9), mean ± SD.

For `COc1ccc([C@@H]2Sc3ccccc3N(CCN(C)C)C(=O)[C@@H]2OC(C)=O)cc1` [Diltiazem], the “Effect of diltiazem coadministration on tacrolimus dose-adjusted trough concentration (C0/D)” value in data set [1] is given as “Significantly higher”. For the same compound, the Diastolic blood pressure in data set [2] (day 1 post-transplantation, CYP3A5 expressers (n = 11), mean ± SD) is on record as 89.2 ± 13.3 mmHg; in data set [2] (day 1 post-transplantation, CYP3A5 non-expressers (n = 9), mean ± SD), 87.4 ± 14.8 mmHg; in data set [2] (setting [3]), 86.8 ± 13.5 mmHg; in data set [2] (setting [4]), 84.3 ± 14.0 mmHg; in data set [2] (setting [5]) it was 77.8 ± 13.3 mmHg; in data set [2] (setting [6]) it was 81.0 ± 7.3 mmHg. Further, the Pulse rate is recorded as 82.0 (74.0, 86.0) bpm in data set [2] (day 1 post-transplantation, CYP3A5 expressers (n = 11), median (IQR)); 82.0 (73.0, 86.0) bpm in data set [2] (day 1 post-transplantation, CYP3A5 non-expressers (n = 9), median (IQR)); 86.6 ± 15.4 bpm in data set [2] (setting [3]); 82.4 ± 7.2 bpm in data set [2] (setting [4]); 80.2 ± 11.2 bpm in data set [2] (setting [5]); 81.8 ± 8.6 bpm in data set [2] (setting [6]). Further, in data set [2] (diltiazem 60 mg/day, first week post-KT), the “Effects on blood pressure” value is “No significant effects on blood pressure”.
